According to the NIST ThermoML archive (doi:10.1016/j.tca.2010.09.004):

Assay: xn = mol fraction of the nth substance listed
Details: 101 kPa, Liquid; for speed of sound: Sing-around technique in a fixed-path interferometer; for mass density: Vibrating tube method

CCCCNCCCC [dibutylamine] + CCC(C)=O
Details	mass density [kg/m3]	speed of sound [m/s]
293.15 K, x2 = 0.0568	760.739	1258.2
293.15 K, x2 = 0.1152	762.014	1255
293.15 K, x2 = 0.1488	762.814	1252.9
293.15 K, x2 = 0.1968	764.024	1250.3
293.15 K, x2 = 0.2539	765.57	1247.2
293.15 K, x2 = 0.3056	767.093	1244.4
293.15 K, x2 = 0.3564	768.675	1241.6
293.15 K, x2 = 0.4105	770.501	1238.7
293.15 K, x2 = 0.4545	772.103	1236.4
293.15 K, x2 = 0.5005	773.872	1234
293.15 K, x2 = 0.5553	776.145	1231.1
293.15 K, x2 = 0.6022	778.277	1228.9
293.15 K, x2 = 0.6554	780.87	1225.8
293.15 K, x2 = 0.7036	783.444	1223.3
293.15 K, x2 = 0.7554	786.435	1220.8
293.15 K, x2 = 0.8022	789.404	1218.7
293.15 K, x2 = 0.8598	793.411	1216.3
293.15 K, x2 = 0.9001	796.544	1215
293.15 K, x2 = 0.9513	800.881	1213.5
298.15 K, x2 = 0.0681	756.775	1237.3
298.15 K, x2 = 0.1038	757.539	1235.3
298.15 K, x2 = 0.1625	758.95	1232
298.15 K, x2 = 0.2034	759.972	1229.9
298.15 K, x2 = 0.2603	761.475	1226.7
298.15 K, x2 = 0.3112	762.929	1223.8
298.15 K, x2 = 0.3523	764.175	1221.6
298.15 K, x2 = 0.3937	765.506	1219.4
298.15 K, x2 = 0.442	767.105	1216.6
298.15 K, x2 = 0.5018	769.396	1213.3
298.15 K, x2 = 0.5455	771.147	1211
298.15 K, x2 = 0.6036	773.698	1207.7
298.15 K, x2 = 0.6514	775.963	1205.2
298.15 K, x2 = 0.7003	778.472	1202.7
298.15 K, x2 = 0.7473	781.05	1200.3
298.15 K, x2 = 0.7978	784.142	1197.9
298.15 K, x2 = 0.8456	787.356	1195.9
298.15 K, x2 = 0.9022	791.581	1193.7
298.15 K, x2 = 0.9482	795.385	1192.3
303.15 K, x2 = 0.0621	752.548	1218.9
303.15 K, x2 = 0.1098	753.539	1216.1
303.15 K, x2 = 0.1666	754.759	1212.6
303.15 K, x2 = 0.2074	755.736	1210.3
303.15 K, x2 = 0.2593	757.08	1207.2
303.15 K, x2 = 0.309	758.454	1204.7
303.15 K, x2 = 0.3551	759.79	1202
303.15 K, x2 = 0.4045	761.368	1199.3
303.15 K, x2 = 0.4566	763.133	1196.4
303.15 K, x2 = 0.4957	764.551	1194.1
303.15 K, x2 = 0.5402	766.282	1191.6
303.15 K, x2 = 0.6005	768.842	1188.2
303.15 K, x2 = 0.6493	771.091	1185.6
303.15 K, x2 = 0.7004	773.646	1182.9
303.15 K, x2 = 0.7486	776.288	1180.5
303.15 K, x2 = 0.8005	779.398	1177.9
303.15 K, x2 = 0.8456	782.362	1175.9
303.15 K, x2 = 0.899	786.254	1173.7
303.15 K, x2 = 0.953	790.578	1172

CCN(CC)CC [triethylamine] + CCC(C)=O
Details	mass density [kg/m3]	speed of sound [m/s]
293.15 K, x2 = 0.0684	730.666	1134.5
293.15 K, x2 = 0.1169	733.08	1136
293.15 K, x2 = 0.1627	735.417	1138
293.15 K, x2 = 0.2218	738.705	1140.6
293.15 K, x2 = 0.2686	741.43	1143
293.15 K, x2 = 0.3141	744.214	1145.5
293.15 K, x2 = 0.3549	746.818	1147.9
293.15 K, x2 = 0.4154	750.867	1151.7
293.15 K, x2 = 0.4636	754.264	1155
293.15 K, x2 = 0.5054	757.343	1158.2
293.15 K, x2 = 0.5572	761.332	1162.3
293.15 K, x2 = 0.61	765.576	1166.7
293.15 K, x2 = 0.6519	769.122	1170.6
293.15 K, x2 = 0.7051	773.808	1175.7
293.15 K, x2 = 0.7603	778.962	1181.4
293.15 K, x2 = 0.8057	783.447	1186.5
293.15 K, x2 = 0.8586	788.929	1192.8
293.15 K, x2 = 0.9019	793.679	1198.3
293.15 K, x2 = 0.9451	798.586	1204.1
298.15 K, x2 = 0.0709	725.999	1112.7
298.15 K, x2 = 0.1149	728.152	1114.2
298.15 K, x2 = 0.158	730.378	1115.9
298.15 K, x2 = 0.2181	733.668	1118.5
298.15 K, x2 = 0.261	736.151	1120.7
298.15 K, x2 = 0.3203	739.738	1123.9
298.15 K, x2 = 0.3605	742.292	1126.3
298.15 K, x2 = 0.4159	745.987	1129.9
298.15 K, x2 = 0.4607	749.113	1133
298.15 K, x2 = 0.5106	752.756	1136.7
298.15 K, x2 = 0.5701	757.323	1141.5
298.15 K, x2 = 0.6039	760.048	1144.5
298.15 K, x2 = 0.66	764.735	1149.5
298.15 K, x2 = 0.7122	769.362	1154.6
298.15 K, x2 = 0.7604	773.883	1159.8
298.15 K, x2 = 0.8023	777.983	1164.4
298.15 K, x2 = 0.8437	782.252	1169.6
298.15 K, x2 = 0.8921	787.444	1175.7
298.15 K, x2 = 0.9456	793.453	1182.8
303.15 K, x2 = 0.0686	721.221	1092.2
303.15 K, x2 = 0.1149	723.47	1093.7
303.15 K, x2 = 0.1643	726.011	1095.6
303.15 K, x2 = 0.2101	728.487	1097.6
303.15 K, x2 = 0.2639	731.565	1100.3
303.15 K, x2 = 0.3102	734.326	1102.7
303.15 K, x2 = 0.3502	736.816	1105.1
303.15 K, x2 = 0.3869	739.189	1107.4
303.15 K, x2 = 0.45	743.482	1111.7
303.15 K, x2 = 0.5081	747.667	1116
303.15 K, x2 = 0.5652	752.023	1120.6
303.15 K, x2 = 0.6051	755.192	1124
303.15 K, x2 = 0.6561	759.446	1128.7
303.15 K, x2 = 0.7087	764.061	1134
303.15 K, x2 = 0.763	769.188	1140
303.15 K, x2 = 0.7945	772.2	1143.5
303.15 K, x2 = 0.8542	778.238	1150.5
303.15 K, x2 = 0.8987	783.012	1156.3
303.15 K, x2 = 0.95	788.818	1163.4
